# According to patent US20160000837A1, “COMPOSITIONS AND METHODS TO ALTER GUT MICROBIAL FERMENTATION USING SULFATE-REDUCING BACTERIA” (WASHINGTON UNIVERSITY, priority 2013, published 2016):
# What was measured:
# D. piger [1] = assay: In vitro cross feeding between B. thetaiotaomicron and D. piger (growth in conditioned medium, OD600); assay type: cell-based, D. piger GOR1; details: for D. piger growth in medium conditioned by wild-type B. thetaiotaomicron grown on the named carbon substrate: 0.5% carbon substrate in minimal medium, filter-sterilized, lactate 30 mM added, no added sulfate
# Experimental: A B. thetaiotaomicron strain Δbt0238 that lacks detectable sulfatase activity, and the isogenic wild-type strain were grown in separate cultures containing minimal medium with either a sulfated or non-sulfated carbon substrate (chondroitin sulfate and fructose, respectively).
# Exponential phase cultures of B. thetaiotaomicron Δbt0238 and the isogenic wild-type parental strain (Benjdia et al., 2011; kindly provided by Eric Martens, University of Michigan and Olivier Berteau, INRA), grown in Mega Medium 2.0, were inoculated under anaerobic conditions (atmosphere of 5% H2, 20% CO2 and 75% N2) into Balch tubes containing minimal medium supplemented with either 0.5% (w/v) chondroitin sulfate purified from shark cartilage (Sigma) or 0.5% fructose (Sigma) (n=6 tubes/carbon substrate/strain). […] Cultures representing the same strain and carbon substrate were combined and bacteria were pelleted by centrifugation at 3,200×g at 4° C. for ˜20 min. The supernatant was removed and sterilized by passage through a 0.22 μm filter (Fisher). […] The pH of the conditioned medium was adjusted to ˜7.0 using potassium phosphate buffer (pH 7.2). One half of each conditioned medium preparation was used to fill anaerobic Balch tubes (in triplicate) while sulfate (14 mM Na2SO4 and 4.1 mM MgSO4) was added to the remaining conditioned medium prior to filling the tubes (in triplicate).
# D. piger [2] = assay: COPRO-Seq relative abundance of D. piger in fecal microbiota of gnotobiotic mice fed sulfur-supplemented HF/HS diets; assay type: in vivo
# Excerpt: Six groups, each composed of two co-housed mice colonized with the 9-member model human gut microbiota were fed one of 13 diets, all based on the HF/HS diet (0.12% w/w SO4; see Table S2 of Rey et al. PNAS 110: 13582-13587 for diet composition). Each group of mice were started on the HF/HS diet and then given a sequence of four diets with differing sulfur content, each for a 7-day period. The sequence of presentation of the four diets was randomized so that that each diet was eventually fed to two different groups of co-housed animals.
# DNA isolated from feces (and cecal contents) was used to prepare libraries for shotgun Illumina sequencing (McNulty et al., 2011). Briefly, 1 μg of DNA from each sample was fragmented by sonication to an average size of ˜500 bp and subjected to enzymatic blunting and adenine tailing. Customized Illumina adapters containing maximally distant 4 bp or 8 bp barcodes were ligated to the A-tailed DNA. Barcoded libraries were then pooled, subjected to gel electrophoresis for size selection (˜200 bp) and the size-selected DNA amplified by PCR using primers and cycling conditions recommended by Illumina. Amplicons were purified (QIAquick PCR Purification Kit, Qiagen) and sequenced using an Illumina GA-IIx or HiSeq2000 instrument, with libraries loaded onto the flow cell at a concentration of 2.0-2.5 pM. […]
molecule,measurement,setting,value
O=C(CO)[C@@H](O)[C@H](O)[C@H](O)CO [fructose],D. piger growth in medium conditioned by wild-type B. thetaiotaomicron grown on the named carbon substrate,D. piger [1],lack of growth
chondroitin sulfate,D. piger growth in medium conditioned by wild-type B. thetaiotaomicron grown on the named carbon substrate,D. piger [1],Growth of D. piger was only observed
same,ability of D. piger to metabolize the substrate (growth in medium harvested from B. thetaiotaomicron Δbt0238 cultures),"D. piger [1]; chondroitin sulfate-containing minimal medium, lactate added",not able to metabolize
same,D. piger levels in fecal microbiota relative to the HF/HS diet,"D. piger [2]; HF/HS diet supplemented with 3% chondroitin sulfate, 7 days, 9-member community, p<0.05",doubled
O=S(=O)(O)O [sulfate],D. piger growth in fructose-conditioned medium after addition of exogenous sulfate,D. piger [1]; 14 mM Na2SO4 and 4.1 mM MgSO4 added,allowed growth
same,relative abundance of D. piger in the 9-member model human microbiota,"D. piger [2]; 600-fold change in dietary sulfate (0.001% to 0.6% w/w) in HF/HS-based diets, 7 days each",did not affect
CC(O)C(=O)O (stereo not shown) [lactate],growth of D. piger with lactate as sole carbon and electron source,"D. piger [1]; in the absence of sulfate, data not shown",does not support growth
